# Reference: US7258999B2, “PTH responsive gene” (Wyeth, priority 2002, dated 2007)
# What was measured:
# [1] = test system: Ovariectomized Rats with Established Osteopenia; experiment: pQCT total and trabecular density (BMD) of proximal tibia in OVX rats; type: in vivo, rat; conditions: for ΔTotal Density / ΔTrabecular Density: 40 μg/kg sc, mean ± SEM
# Experimental: The total density of the proximal tibia was evaluated in anesthetized rats using peripheral quantitative computed tomography (pQCT) with XCT-960M (Stratec Medizintechnik, Pforzheim, Germany). The baseline and post-treatment measurements were performed in anesthetized rats as follows: The right hind limb was passed through a polycarbonate tube with a diameter of 25 mm and taped to an acrylic frame with the ankle joint at a 90° angle and the knee joint at 180°. The polycarbonate tube was affixed to a sliding platform that maintained it perpendicular to the aperture of the pQCT. The platform was adjusted so that the distal end of the femur and the proximal end of the tibia would be in the scanning field. A two dimensional scout view was run for a length of 10 mm and a line resolution of 0.2 mm. […] The pQCT scan was initiated 3.4 mm distal from this point. […] A region of interest including the tibia but excluding the fibula was outlined. The soft tissue was automatically removed using an iterative algorithm. The density of the remaining bone (Total density) was reported in mg/cm^3. The change in total density was calculated for each animal by subtracting post-treatment and baseline total density values.
# Female Wister rats 4 weeks of age were treated with vehicle (saline) and human PTH (1-34) at a dose of 40 μg/kg of body weight for eight days. Prior to PTH administration animals were ovariectomized (OVX). Three weeks post OVX total BMD was measured to determine if osteopenia was established. Subcutaneous injection of PTH once a day represented intermittent administration of PTH, while osmotic pump with release rate of 40 μg/kg/day implanted under the skin represented continuous way of PTH administration. On the eight day of treatment, 6 hours post treatment animals were scarified and samples were collected for further analysis. Each treatment group contained 8 animals.
# PTH (1-34) in a dose of 40 μg/kg was administered for eight days to the 3 weeks OVX rats in intermitted and continuous manner to induce anabolic and catabolic PTH effects respectively. As described in General Method section, intermittent administration of PTH was presented by once a day subcutaneous injection of PTH while continues administration was presented with osmotic pumps implanted under the skin with release rate of 40 μg/kg a day. Total bone mineral density was measured using pQCT. Intermittent PTH injection induced significant increases in total BMD, with Δ BMD of […] (FIG. 1). […] Thus, PTH exerts its effect on bone anabolic and catabolic (i.e., causing a decrease in BMD) depending of the way of its administration.
# In order to examine whether changes in PAIGB expression with intermittent PTH treatment correlates with effects of PTH on bone, samples from rats treated with PTH for 2, 4 and 8 days were subjected to BMD measurements for both total and trabecular bone (trabecular density of proximal tibia was measured). Two days PTH treatment increases expression of PAIGB. At the same time point significant increase in trabecular BMD (Δ trabecular density: 6.98+/−17.90 with PTH treatment vs −27.1+/−9.27 with vehicle treatment) was detected without any significant changes in total BMD (Δ total density: −9.15+/−2.94 PTH vs 0.69+/−4.10 vehicle) (Table 1).
# PAIGB expression = experiment: Real time PCR of PAIGB in brain, kidney and heart after intermittent PTH; type: in vivo, rat; conditions: intermittent injection
# Excerpt: Applicants performed multiplex real time PCR (TaqMan) analysis on previously DNAsed samples using gene specific probe and primers and 18S ribosomal RNA probe and primer sets purchased from Applied Biosystem. (Foster City, Calif.) The samples were DNAsed according to the protocol provided by Ambion (DNA-free kit). TaqMan probe and primers for PAIGB was identify using Primer Express computer program. The sequence for rat PAIGB TaqMan probe was 6FAM-5′[…] (SEQ ID NO: 16) forward and reverse primers were 5′[…] 3′ (SEQ ID NO:17) and 5′ […] 3′ (SEQ ID NO:18) respectively. The final concentrations for probes were 500 nM and 40 nM for PAIGB and 18S ribosomal RNA or GAPDH respectively. The concentrations of the primers were 500 nM for PAIGB forward and reversed primers while 18S primers were 10 and 20 nM for forward and reversed primer respectively or 40 nM for GAPDH primers. Standards for rat samples were made from rat tibia or brain RNA in the range of 250 ng to 0.1 ng, while standards for mouse specific TaqMan were made from mouse brain RNA and human standards from human brain RNA (Clonetech, Palo Alto, Calif.) spanning the same range of concentration. Primers and probes for mouse PAIGB were: forward 5′ […] 3′ (SEQ ID NO:19), reverse, 5′ […] 3′ (SEQ ID NO:20) anti-sense and probe 5′ 6FAM-[…] (SEQ ID NO:21). Primers and probes for human PAIGB were: forward 5′ […] 3′ (SEQ ID NO:22), reverse 5′ […] […]
# [2] = four days treatment, listed as HPTH (1–34)
# [3] = four days treatment, listed as PTH
# [4] = two days treatment, listed as HPTH (1–34)
# [5] = two days treatment, listed as PTH
substance,measurement,setting,value
human PTH (1-34),change in total BMD,"[1]; continuous: osmotic pump 40 μg/kg a day, eight days, 3 weeks OVX rats",did not induce any changes
same,ΔTotal Density,[1]; [2],-10.56 ± 3.11 mg/mL
same,ΔTrabecular Density,[1]; [2],8.70 ± 9.98 mg/mL
same,ΔTotal Density,[1]; [3],10.56 ± 3.11 mg/mL
same,ΔTrabecular Density,[1]; [3],8.70 ± 9.98 mg/mL
same,Δ BMD (total BMD),"[1]; intermittent: 40 μg/kg once a day sc, eight days, 3 weeks OVX rats",80 mg/cm³
same,ΔTotal Density,[1]; [4],-9.15 ± 2.94 mg/mL
same,ΔTrabecular Density,[1]; [4],6.98 ± 17.90 mg/mL
same,ΔTotal Density,[1]; [5],-9.15 ± 2.94 mg/mL
same,ΔTrabecular Density,[1]; [5],6.98 ± 17.90 mg/mL
same,"changes in PAIGB expression in brain, kidney and heart",PAIGB expression,did not produce any changes
